Measured values: patent US20250195530A1, “POLQ INHIBITORS” (ASTRAZENECA AB, priority 2022, published 2025)
Like-named read-outs stand apart in the source and are kept apart here.

Tested on: DLD-1 BRCA2−/− cells
Test: Homologous recombination synthetic lethal inhibition of proliferation, DLD-1 BRCA2-/- (Cell Titre Glo 3D)
Assay type: cell-based
Conditions: Homo sapiens
Description: This assay identifies anti-proliferative effects of POLQ compounds in the homologous recombination deficient colorectal cell line DLD-1 BRCA2−/− over 8-9 population doublings (7 days for DLD-1 and 12 days for DLD-1 BRCA2−/−). DLD1 BRCA2 wt are used as a control to detect cell toxic effects not specific to homologous recombination deficiency.
DLD-1 BRCA2−/− and DLD-1 cells were kept in continuous culture in Assay Medium (RPMI 1640 phenol red free (Sigma R7509) containing 1% GlutaMAX (Gibco 35050) and 10% Foetal Bovine Serum (Gibco 10270-106)). On the day of the assay cells in culture of ˜80-90% confluent were used. Cell monolayers were washed with 10 mL PBS, then removed and added 2 mL TrypLE Express (Gibco 12604). The cells with TrypLE Express were incubated for 5 minutes in cell culture incubator and then the detached cells resuspend in 15 mL Assay Medium. Cells were counted using a ViCell and the cell images were monitored for clumps of cells, ideally they should be single or <3 cell clusters. The cells were diluted to 3,000 cells/mL of DLD-1 BRCA2−/− and 1,500 cells/mL of DLD-1 in Assay Medium and 100 μL added per well of transparent bottomed, black, tissue culture-treated 96-well plates (CoStar, No. 3904) Assay Ready Plates. The Assay Ready Plates contain a 10 point 10 μM to 0.51 nM dose range with three-fold dilutions in DMSO with a final volume of 100 nL. The plates were incubated at 37° C. with 5% C02 for 6 days. On day 6, 100 μL/well of Assay Medium was added to duplicate Assay Ready Plates. 90 μL of culture medium was removed from the cell plates and replenished with the Assay Media and compounds from the duplicate Assay Ready Plates using the Bravo. The plates were further incubated at 37° C. with 5% CO2. On day 7 the plates containing DLD-1 and Cell Titre Glo 3D (Promega G9683) were equilibrated to room temperature, then 60 μL of Cell Titre Glo 3D was added per well and incubated on a shaking platform for 30 min. Plates were read on the Envision measuring luminescence for 1 second per well. On day 12 the plates containing DLD-1 BRCA2−/− cells and Cell Titre Glo 3D (Promega G9683) were equilibrated to room temperature, then 60 μL Cell Titre Glo 3D added per well and incubated on a shaking platform for 30 min. Plates were read on the Envision measuring luminescence for 1 second per well. The data was exported into a suitable software package (such as Genedata) to perform curve fitting analysis. Inhibition of cell proliferation was expressed as an IC5o value and was determined by calculation of the concentration of compound that was required to give a 50% reduction of the average maximum Total Intensity signal.

[1] = DLD-1, DLD-1 BRCA2 −/− cells, mean, read-out: POLQ PD Prolif Lumin BRCA2 −/− mean pIC50 (converted)
[2] = DLD-1, first proliferation column (c5), taken as DLD-1 BRCA2-/-, read-out: POLQ PD Prolif Lumin (converted)
[3] = DLD-1, proliferation, luminescence, taken as DLD-1 BRCA2-/-, read-out: POLQ PD Prolif Lumin (converted)
[4] = DLD-1, first proliferation column (c5), DLD-1 BRCA2-/-, read-out: POLQ PD Prolif Lumin (converted)
[5] = DLD-1, first proliferation column, DLD-1 BRCA2-/-, read-out: POLQ PD Prolif Lumin (converted)
[6] = DLD-1, DLD-1 BRCA2 −/−, mean, read-out: POLQ PD Prolif Lumin BRCA2 −/− mean pIC50 (converted)

Cc1cccc(Cn2c(-c3ccc(CC(N)=O)cc3Cl)nc3c(OC4(C)CC4)ncnc32)n1 [Example T59, 2-(3-chloro-4-(6-(1-methylcyclopropoxy)-9-((6-methylpyridin-2-yl)methyl)-9H-purin-8-yl)phenyl)acetamide]
IC50 [1]: 2510 nM

CC[C@@H](O)CNC(=O)c1ccc(-c2nc3c(OC4(C)CC4)ncnc3n2Cc2cc(C)ccn2)c(Cl)c1 [Example T365, (R)-3-chloro-N-(2-hydroxybutyl)-4-(6-(1-methylcyclopropoxy)-9-((4-methylpyridin-2-yl)methyl)-9H-purin-8-yl)benzamide]
IC50 [2]: 794 nM

COc1cccc(Cn2c(-c3ccc(OCCC(C)C(=O)O)cc3Cl)nc3c(OC4(C)CC4)ncnc32)c1 (racemic) [Example T454, 4-(3-chloro-4-(9-(3-methoxybenzyl)-6-(1-methylcyclopropoxy)-9H-purin-8-yl)phenoxy)-2-methylbutanoic acid]
IC50 [3]: 794 nM

Cc1ccnc(Cn2c(-c3ccc(N4CCNCCC4=O)cc3Cl)nc3c(OC4(C)CC4)ncnc32)c1 [Example T338, 4-(3-chloro-4-(6-(1-methylcyclopropoxy)-9-((4-methylpyridin-2-yl)methyl)-9H-purin-8-yl)phenyl)-1,4-diazepan-5-one]
IC50 [2]: 2000 nM

Cc1ccnc(Cn2c(-c3ccc(C(=O)N[C@@H]4CCOC4)cc3Cl)nc3c(OC4(C)CC4)ncnc32)c1 [Example T316, (R)-3-chloro-4-(6-(1-methylcyclopropoxy)-9-((4-methylpyridin-2-yl)methyl)-9H-purin-8-yl)-N-(tetrahydrofuran-3-yl)benzamide]
IC50 [2]: 631 nM

Cc1ccnc(Cn2c(-c3ccc(OCC4COC4)cc3Cl)nc3c(OC4(C)CC4)ncnc32)c1 [Example T193, 8-(2-chloro-4-(oxetan-3-ylmethoxy)phenyl)-6-(1-methylcyclopropoxy)-9-((4-methylpyridin-2-yl)methyl)-9H-purine]
IC50 [4]: 251 nM

Cc1ccnc(Cn2c(-c3ccc(OCC(N)=O)cc3Cl)nc3c(OC4(C)CC4)ncnc32)c1 [Example T61, 2-(3-chloro-4-(6-(1-methylcyclopropoxy)-9-((4-methylpyridin-2-yl)methyl)-9H-purin-8-yl)phenoxy)acetamide]
IC50 [1]: 251 nM

Cc1ccnc(Cn2c(-c3ccc(OCCCF)cc3Cl)nc3c(OC4(C)CC4)ncnc32)c1 [Example T108, 8-(2-chloro-4-(3-fluoropropoxy)phenyl)-6-(1-methylcyclopropoxy)-9-((4-methylpyridin-2-yl)methyl)-9H-purine]
IC50 [4]: 126 nM

Cc1ccnc(Cn2c(-c3ccc(C(=O)N(C)CC4(O)CC4)cc3Cl)nc3c(OC4(C)CC4)ncnc32)c1 [Example T462, 3-chloro-N-((1-hydroxycyclopropyl)methyl)-N-methyl-4-(6-(1-methylcyclopropoxy)-9-((4-methylpyridin-2-yl)methyl)-9H-purin-8-yl)benzamide]
IC50 [3]: 1580 nM

CC(C)(C)Oc1cccc2c1nc(-c1ccc(OCCN3CCNCC3)cc1Cl)n2Cc1cccc(Cl)c1 [Example T608, 4-(tert-butoxy)-2-(2-chloro-4-(2-(piperazin-1-yl)ethoxy)phenyl)-1-(3-chlorobenzyl)-1H-benzo[d]imidazole]
IC50 [5]: 501 nM

Cc1ccnc(Cn2c(-c3ccc(C(=O)NC[C@H](C)O)cc3Cl)nc3c(OC4(C)CC4)ncnc32)c1 [Example T218, (S)-3-chloro-N-(2-hydroxypropyl)-4-(6-(1-methylcyclopropoxy)-9-((4-methylpyridin-2-yl)methyl)-9H-purin-8-yl)benzamide]
IC50 (DLD-1, DLD-1 BRCA2-/- proliferation, column head only partly shown, read-out: POLQ PD Prolif Lumin (converted)): 631 nM

Cc1ccnc(Cn2c(-c3ccc(OC4COC4)cc3Cl)nc3c(OC4(C)CC4)ncnc32)c1 [Example T103, 8-(2-chloro-4-(oxetan-3-yloxy)phenyl)-6-(1-methylcyclopropoxy)-9-((4-methylpyridin-2-yl)methyl)-9H-purine]
IC50 [1]: 158 nM

CC(CCCc1ccc(-c2nc3c(OC4(C)CC4)ncnc3n2Cc2ccccc2C#N)c(Cl)c1)C(=O)O (racemic) [Example U12, 5-(3-chloro-4-(9-(2-cyanobenzyl)-6-(1-methylcyclopropoxy)-9H-purin-8-yl)phenyl)-2-methylpentanoic acid]
IC50 [6]: 398 nM

Cc1ccnc(Cn2c(-c3ccc(OCC(=O)N4CCC(O)CC4)cc3Cl)nc3c(OC4(C)CC4)ncnc32)c1 [Example T580, 2-(3-chloro-4-(6-(1-methylcyclopropoxy)-9-((4-methylpyridin-2-yl)methyl)-9H-purin-8-yl)phenoxy)-1-(4-hydroxypiperidin-1-yl)ethan-1-one]
IC50 [5]: 501 nM

CC(CCOc1ccc(-c2nc3c(OC4(C)CC4)ncnc3n2Cc2cccc(Cl)c2C#N)c(Cl)c1)C(=O)O (racemic) [Example U37, 4-(3-chloro-4-(9-(3-chloro-2-cyanobenzyl)-6-(1-methylcyclopropoxy)-9H-purin-8-yl)phenoxy)-2-methylbutanoic acid]
IC50 [6]: 2000 nM

Cc1ccnc(Cn2c(-c3ccc(C(=O)N4CCC[C@H]4CO)cc3Cl)nc3c(OC4(C)CC4)ncnc32)c1 [Example T466, (S)-(3-chloro-4-(6-(1-methylcyclopropoxy)-9-((4-methylpyridin-2-yl)methyl)-9H-purin-8-yl)phenyl)(2-(hydroxymethyl)pyrrolidin-1-yl)methanone]
IC50 [3]: 1000 nM

CC1(Oc2ncnc3c2nc(-c2ccc(OCC4(CC(=O)O)CC4)cc2Cl)n3Cc2ccccc2C#N)CC1 [Example U15, 2-(1-((3-chloro-4-(9-(2-cyanobenzyl)-6-(1-methylcyclopropoxy)-9H-purin-8-yl)phenoxy)methyl)cyclopropyl)acetic acid]
IC50 [6]: 794 nM

Cc1ccnc(Cn2c(-c3ccc(N4CCC5(CCN5)CC4)cc3Cl)nc3c(OC4(C)CC4)ncnc32)c1 [Example T586, 8-(2-chloro-4-(1,7-diazaspiro[3.5]nonan-7-yl)phenyl)-6-(1-methylcyclopropoxy)-9-((4-methylpyridin-2-yl)methyl)-9H-purine]
IC50 [5]: 1580 nM

CC[C@H](CO)NC(=O)COc1ccc(-c2nc3c(OC4(C)CC4)ncnc3n2Cc2cc(C)ccn2)c(Cl)c1 [Example T518, (R)-2-(3-chloro-4-(6-(1-methylcyclopropoxy)-9-((4-methylpyridin-2-yl)methyl)-9H-purin-8-yl)phenoxy)-N-(1-hydroxybutan-2-yl)acetamide]
IC50 [4]: 398 nM

CNC(=O)CNc1ccc(-c2nc3c(OC4(C)CC4)ncnc3n2Cc2cc(C)ccn2)c(Cl)c1 [Example T131, 2-((3-chloro-4-(6-(1-methylcyclopropoxy)-9-((4-methylpyridin-2-yl)methyl)-9H-purin-8-yl)phenyl)amino)-N-methylacetamide]
IC50 [4]: 794 nM

Cc1ccnc(Cn2c(-c3ccc(N4CC5CC4CCN5)cc3Cl)nc3c(OC4(C)CC4)ncnc32)c1 (racemic) [Example T491, 8-(4-(2,6-diazabicyclo[3.2.1]octan-6-yl)-2-chlorophenyl)-6-(1-methylcyclopropoxy)-9-((4-methylpyridin-2-yl)methyl)-9H-purine]
IC50 [4]: 501 nM

CC1(Oc2ncnc3c2nc(-c2ccc(OCCC(C)(C)C(=O)O)cc2Cl)n3Cc2ccccc2C#N)CC1 [Example U17, 4-(3-chloro-4-(9-(2-cyanobenzyl)-6-(1-methylcyclopropoxy)-9H-purin-8-yl)phenoxy)-2,2-dimethylbutanoic acid]
IC50 [6]: 251 nM
